What was measured:
[1] = Aqueous solubility of the compound; conditions: aqueous medium (not further specified)
D(2) dopamine receptor = D(2) dopamine receptor (Rattus norvegicus, UniProt P61169); test: Displacement of [3H]Spiperone from D2 receptor in Sprague-Dawley rat caudate-putamen; assay type: tissue-based
D(1A) dopamine receptor = D(1A) dopamine receptor (Rattus norvegicus, UniProt P18901); test: Displacement of [3H]SCH23390 from D1-like receptor in Sprague-Dawley rat striatum
D(1A) dopamine receptor, sequence (P18901 whole entry): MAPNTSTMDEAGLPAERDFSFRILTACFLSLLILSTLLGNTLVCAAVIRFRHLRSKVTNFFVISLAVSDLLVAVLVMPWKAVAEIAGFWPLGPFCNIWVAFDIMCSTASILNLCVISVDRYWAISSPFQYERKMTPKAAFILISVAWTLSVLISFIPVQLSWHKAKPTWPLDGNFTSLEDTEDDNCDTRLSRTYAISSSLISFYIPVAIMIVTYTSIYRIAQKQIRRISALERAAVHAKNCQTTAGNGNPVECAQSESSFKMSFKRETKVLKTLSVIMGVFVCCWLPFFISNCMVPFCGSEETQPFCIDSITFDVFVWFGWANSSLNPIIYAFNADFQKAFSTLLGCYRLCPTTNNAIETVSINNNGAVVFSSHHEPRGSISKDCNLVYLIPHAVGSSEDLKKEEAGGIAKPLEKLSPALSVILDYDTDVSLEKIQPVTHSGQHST

D(2) dopamine receptor, sequence (P61169 whole entry): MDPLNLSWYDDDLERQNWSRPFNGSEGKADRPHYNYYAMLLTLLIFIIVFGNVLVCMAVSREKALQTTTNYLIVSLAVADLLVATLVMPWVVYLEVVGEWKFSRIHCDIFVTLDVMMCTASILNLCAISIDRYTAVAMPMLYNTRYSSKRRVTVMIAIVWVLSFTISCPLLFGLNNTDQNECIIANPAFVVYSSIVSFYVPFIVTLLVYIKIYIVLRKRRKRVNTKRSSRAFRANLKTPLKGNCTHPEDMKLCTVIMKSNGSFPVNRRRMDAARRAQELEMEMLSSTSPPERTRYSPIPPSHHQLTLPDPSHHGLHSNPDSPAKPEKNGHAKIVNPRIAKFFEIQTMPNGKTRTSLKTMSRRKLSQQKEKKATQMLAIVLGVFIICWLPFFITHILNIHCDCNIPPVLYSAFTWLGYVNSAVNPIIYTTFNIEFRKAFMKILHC

| solubility [1] | Ki (D(2) dopamine receptor) | Ki (D(1A) dopamine receptor) | Compound |
| --- | --- | --- | --- |
| 100 mg/mL |  |  | CCCN(CC[C@H]1CC[C@H](NC(=O)c2ccc3ccccc3c2)CC1)[C@H]1CCc2nc(N)sc2C1.Cl.Cl |
|  | 0.33 µM |  | CCCN(CC[C@H]1CC[C@H](NC(=O)/C=C/c2ccccc2)CC1)[C@H]1CCc2nc(N)sc2C1 |
|  |  | 5.4 µM | CCCCN(CC[C@H]1CC[C@H](NC(=O)c2ccc3ccccc3c2)CC1)[C@H]1CCc2nc(N)sc2C1 |
|  |  | 13 µM | CC(C)CCN(CC[C@H]1CC[C@H](NC(=O)c2ccc3ccccc3c2)CC1)[C@H]1CCc2nc(N)sc2C1 |
|  |  | 64 µM | Nc1nc2c(s1)C[C@@H](NCC[C@H]1CC[C@H](NC(=O)c3ccc4ccccc4c3)CC1)CC2 |
|  | > 10 µM | > 50 µM | COc1ccc2c(c1)CC[C@@H]1CN(CC[C@H]3CC[C@H](NC(=O)c4ccc5ccccc5c4)CC3)CCN21 |
|  |  | > 100 µM | CCCN[C@H]1CCc2nc(N)sc2C1 [PRAMIPEXOLE] |

— ChEMBL document CHEMBL1140107, “Design, synthesis, and evaluation of potent and selective ligands for the dopamine 3 (D3) receptor with a novel in vivo behavioral profile” (J Med Chem, 2008)
